Results published in patent US20230111310A1, “CARBOXYLIC ACID DERIVATIVE-SUBSTITUTED IMINO ARYL COMPOUND, PREPARATION METHOD THEREFOR, HERBICIDAL COMPOSITION AND USE THEREOF” (Qingdao Kingagroot Chemical Compound Co., Ltd., priority 2020, published 2023).

What was measured:
Experiment in all cases: Weeding effect in post-emergence stage
Assay type in all cases: in vivo
Conditions in all cases: level of fresh weight growth control rate
Abutilon theophrasti = tested on: Abutilon theophrasti
Method in brief: (§1)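 Doses of 500, 250, 125, 60, 30, 15 and 7.5 g/ha, with methyl oleate synergist (1.5 liter/ha) and Tween 80 from acetone solution, applied by spray tower post-emergence (2–3 leaf stage). Weed control scored after 3 further greenhouse weeks, averaged over triplicates.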

Alopecurus japonicus = tested on: Alopecurus japonicus
Method in brief: as §1

Digitaria sanguinalis = tested on: Digitaria sanguinalis
Method in brief: as §1

Eleusine indica = tested on: Eleusine indica
Method in brief: as §1

Setaria viridis = tested on: Setaria viridis
Method in brief: as §1

Echinochloa crusgalli = tested on: Echinochloa crusgalli
Method in brief: as §1

SMILES | Weeding effect in post-emergence stage, Abutilon theophrasti (Abutilon theophrasti; Dose 15 g/ha) | Weeding effect in post-emergence stage, Alopecurus japonicus (Alopecurus japonicus; Dose 15 g/ha) | Weeding effect in post-emergence stage, Digitaria sanguinalis (Digitaria sanguinalis; Dose 15 g/ha) | Weeding effect in post-emergence stage, Eleusine indica (Eleusine indica; Dose 15 g/ha) | Weeding effect in post-emergence stage, Setaria viridis (Setaria viridis; Dose 15 g/ha) | Weeding effect in post-emergence stage, Echinochloa crusgalli (Echinochloa crusgalli; Dose 15 g/ha) | also measured
C[C@@H](O/N=C/c1cc(-n2c(=O)cc(C(F)(F)F)n(C)c2=O)c(F)cc1Cl)C(=O)OC/C=C/Cl [225(R)] | 5 (Level 5: growth control rate is above 85%) | 5 (Level 5: growth control rate is above 85%) | 5 (Level 5: growth control rate is above 85%) | 5 (Level 5: growth control rate is above 85%) | 5 (Level 5: growth control rate is above 85%) | 5 (Level 5: growth control rate is above 85%) | –
C[C@@H](O/N=C/c1cc(-n2c(=O)cc(C(F)(F)F)n(C)c2=O)c(F)cc1Cl)C(=O)OCC#N [226(R)] | 5 (Level 5: growth control rate is above 85%) | 5 (Level 5: growth control rate is above 85%) | 5 (Level 5: growth control rate is above 85%) | 5 (Level 5: growth control rate is above 85%) | 5 (Level 5: growth control rate is above 85%) | 5 (Level 5: growth control rate is above 85%) | –
C[C@@H](O/N=C/c1cc(-n2c(=O)cc(C(F)(F)F)n(C)c2=O)c(F)cc1Cl)C(=O)OCCC#N [227(R)] | 5 (Level 5: growth control rate is above 85%) | 5 (Level 5: growth control rate is above 85%) | 5 (Level 5: growth control rate is above 85%) | 5 (Level 5: growth control rate is above 85%) | 5 (Level 5: growth control rate is above 85%) | 5 (Level 5: growth control rate is above 85%) | –
C[C@@H](O/N=C/c1cc(-n2c(=O)cc(C(F)(F)F)n(C)c2=O)c(F)cc1Cl)C(=O)OCCO [228(R)] | 5 (Level 5: growth control rate is above 85%) | 5 (Level 5: growth control rate is above 85%) | 5 (Level 5: growth control rate is above 85%) | 5 (Level 5: growth control rate is above 85%) | 5 (Level 5: growth control rate is above 85%) | 5 (Level 5: growth control rate is above 85%) | –
COCCOC(=O)[C@@H](C)O/N=C/c1cc(-n2c(=O)cc(C(F)(F)F)n(C)c2=O)c(F)cc1Cl [230(R)] | 5 (Level 5: growth control rate is above 85%) | 5 (Level 5: growth control rate is above 85%) | 5 (Level 5: growth control rate is above 85%) | 5 (Level 5: growth control rate is above 85%) | 5 (Level 5: growth control rate is above 85%) | 5 (Level 5: growth control rate is above 85%) | –
CCOCCOC(=O)[C@@H](C)O/N=C/c1cc(-n2c(=O)cc(C(F)(F)F)n(C)c2=O)c(F)cc1Cl [231(R)] | 5 (Level 5: growth control rate is above 85%) | 5 (Level 5: growth control rate is above 85%) | 5 (Level 5: growth control rate is above 85%) | 5 (Level 5: growth control rate is above 85%) | 5 (Level 5: growth control rate is above 85%) | 5 (Level 5: growth control rate is above 85%) | –
CCCCOCCOC(=O)[C@@H](C)O/N=C/c1cc(-n2c(=O)cc(C(F)(F)F)n(C)c2=O)c(F)cc1Cl [232(R)] | 5 (Level 5: growth control rate is above 85%) | 5 (Level 5: growth control rate is above 85%) | 5 (Level 5: growth control rate is above 85%) | 5 (Level 5: growth control rate is above 85%) | 5 (Level 5: growth control rate is above 85%) | 5 (Level 5: growth control rate is above 85%) | –
CSCOC(=O)[C@@H](C)O/N=C/c1cc(-n2c(=O)cc(C(F)(F)F)n(C)c2=O)c(F)cc1Cl [233(R)] | 5 (Level 5: growth control rate is above 85%) | 5 (Level 5: growth control rate is above 85%) | 5 (Level 5: growth control rate is above 85%) | 5 (Level 5: growth control rate is above 85%) | 5 (Level 5: growth control rate is above 85%) | 5 (Level 5: growth control rate is above 85%) | –
CSCCOC(=O)[C@@H](C)O/N=C/c1cc(-n2c(=O)cc(C(F)(F)F)n(C)c2=O)c(F)cc1Cl [234(R)] | 5 (Level 5: growth control rate is above 85%) | 5 (Level 5: growth control rate is above 85%) | 5 (Level 5: growth control rate is above 85%) | 5 (Level 5: growth control rate is above 85%) | 5 (Level 5: growth control rate is above 85%) | 5 (Level 5: growth control rate is above 85%) | –
CCCOC(=O)OC(=O)[C@@H](C)O/N=C/c1cc(-n2c(=O)cc(C(F)(F)F)n(C)c2=O)c(F)cc1Cl [236(R)] | – | – | – | – | – | – | Weeding effect in post-emergence stage, Abutilon theophrasti (Abutilon theophrasti; Dose 60 g/ha): 5 (Level 5: growth control rate is above 85%); Weeding effect in post-emergence stage, Alopecurus japonicus (Alopecurus japonicus; Dose 60 g/ha): 5 (Level 5: growth control rate is above 85%); Weeding effect in post-emergence stage, Digitaria sanguinalis (Digitaria sanguinalis; Dose 60 g/ha): 5 (Level 5: growth control rate is above 85%); Weeding effect in post-emergence stage, Eleusine indica (Eleusine indica; Dose 60 g/ha): 5 (Level 5: growth control rate is above 85%); Weeding effect in post-emergence stage, Setaria viridis (Setaria viridis; Dose 60 g/ha): 5 (Level 5: growth control rate is above 85%); Weeding effect in post-emergence stage, Echinochloa crusgalli (Echinochloa crusgalli; Dose 60 g/ha): 5 (Level 5: growth control rate is above 85%)
CC(=O)COC(=O)[C@@H](C)O/N=C/c1cc(-n2c(=O)cc(C(F)(F)F)n(C)c2=O)c(F)cc1Cl [238(R)] | 5 (Level 5: growth control rate is above 85%) | 5 (Level 5: growth control rate is above 85%) | 5 (Level 5: growth control rate is above 85%) | 5 (Level 5: growth control rate is above 85%) | 5 (Level 5: growth control rate is above 85%) | 5 (Level 5: growth control rate is above 85%) | –
COC(=O)CCOC(=O)[C@@H](C)O/N=C/c1cc(-n2c(=O)cc(C(F)(F)F)n(C)c2=O)c(F)cc1Cl [240(R)] | – | – | – | – | – | – | Weeding effect in post-emergence stage, Abutilon theophrasti (Abutilon theophrasti; Dose 30 g/ha): 5 (Level 5: growth control rate is above 85%); Weeding effect in post-emergence stage, Alopecurus japonicus (Alopecurus japonicus; Dose 30 g/ha): 5 (Level 5: growth control rate is above 85%); Weeding effect in post-emergence stage, Digitaria sanguinalis (Digitaria sanguinalis; Dose 30 g/ha): 5 (Level 5: growth control rate is above 85%); Weeding effect in post-emergence stage, Eleusine indica (Eleusine indica; Dose 30 g/ha): 5 (Level 5: growth control rate is above 85%); Weeding effect in post-emergence stage, Setaria viridis (Setaria viridis; Dose 30 g/ha): 5 (Level 5: growth control rate is above 85%); Weeding effect in post-emergence stage, Echinochloa crusgalli (Echinochloa crusgalli; Dose 30 g/ha): 5 (Level 5: growth control rate is above 85%)
COC(=O)C(C)OC(=O)[C@@H](C)O/N=C/c1cc(-n2c(=O)cc(C(F)(F)F)n(C)c2=O)c(F)cc1Cl (stereo partly drawn) [241(R)] | – | – | – | – | – | – | Weeding effect in post-emergence stage, Abutilon theophrasti (Abutilon theophrasti; Dose 30 g/ha): 5 (Level 5: growth control rate is above 85%); Weeding effect in post-emergence stage, Alopecurus japonicus (Alopecurus japonicus; Dose 30 g/ha): 5 (Level 5: growth control rate is above 85%); Weeding effect in post-emergence stage, Digitaria sanguinalis (Digitaria sanguinalis; Dose 30 g/ha): 5 (Level 5: growth control rate is above 85%); Weeding effect in post-emergence stage, Eleusine indica (Eleusine indica; Dose 30 g/ha): 5 (Level 5: growth control rate is above 85%); Weeding effect in post-emergence stage, Setaria viridis (Setaria viridis; Dose 30 g/ha): 5 (Level 5: growth control rate is above 85%); Weeding effect in post-emergence stage, Echinochloa crusgalli (Echinochloa crusgalli; Dose 30 g/ha): 5 (Level 5: growth control rate is above 85%)
COC(=O)C(C)(C)OC(=O)[C@@H](C)O/N=C/c1cc(-n2c(=O)cc(C(F)(F)F)n(C)c2=O)c(F)cc1Cl [243(R)] | 5 (Level 5: growth control rate is above 85%) | 5 (Level 5: growth control rate is above 85%) | 5 (Level 5: growth control rate is above 85%) | 5 (Level 5: growth control rate is above 85%) | 5 (Level 5: growth control rate is above 85%) | 5 (Level 5: growth control rate is above 85%) | –
COC(=O)C(OC)OC(=O)[C@@H](C)O/N=C/c1cc(-n2c(=O)cc(C(F)(F)F)n(C)c2=O)c(F)cc1Cl (stereo partly drawn) [245(R)] | – | – | – | – | – | – | Weeding effect in post-emergence stage, Abutilon theophrasti (Abutilon theophrasti; Dose 30 g/ha): 5 (Level 5: growth control rate is above 85%); Weeding effect in post-emergence stage, Alopecurus japonicus (Alopecurus japonicus; Dose 30 g/ha): 5 (Level 5: growth control rate is above 85%); Weeding effect in post-emergence stage, Digitaria sanguinalis (Digitaria sanguinalis; Dose 30 g/ha): 5 (Level 5: growth control rate is above 85%); Weeding effect in post-emergence stage, Eleusine indica (Eleusine indica; Dose 30 g/ha): 5 (Level 5: growth control rate is above 85%); Weeding effect in post-emergence stage, Setaria viridis (Setaria viridis; Dose 30 g/ha): 5 (Level 5: growth control rate is above 85%); Weeding effect in post-emergence stage, Echinochloa crusgalli (Echinochloa crusgalli; Dose 30 g/ha): 5 (Level 5: growth control rate is above 85%)
